{
  "source": "patent US20260022134A1",
  "about": "“N-HETEROCYCLE-CONTAINING BORIC ACID COMPOUND AND PREPARATION METHOD AND APPLICATION THEREOF” (Hangzhou City University, priority 2022, published 2026)",
  "format_in_all_cases": "cell-based",
  "key": {"glioma cells U87": {"tested_on": "glioma cells U87", "assay": "Flow cytometry cell cycle analysis (PI staining)", "settings": "cells U87, 24 h treatment; increased from 11.99%", "protocol": "(§1) The cells of the logarithmic phase were taken and dissociated by 0.25% trypsin-EDTA and blown into single cells, and inoculated into the 6-well plate with a density of 2000 to 3000 pcs/well, and gently shaken to disperse the cells uniformly and then placed into 5% CO2, 37° C. incubator for incubation. After 24 h, the original culture medium was discarded and a fresh cell culture medium containing drugs of corresponding concentrations was then added; after the cells were incubated for 24 h, the cells were dissociated by 0.25% trypsin-EDTA and cleaned twice with 1 mL of precooled PBS and then re-suspended with 250 μl PBS and slowly added dropwise into 750 μl of precooled 75% ethyl alcohol, and then fixed at the temperature of −20° C. overnight. […] Propidium iodide (PI) with a final concentration of […] was added for staining of 1 h free from light at room temperature, and then filtered by gauze and then transferred to a flow tube and detected and analyzed by a flow cytometer.\n(§2) In order to determine the mechanism of the growth inhibition effect of (3-((5-chloro-4-(1H-pyrrolo[2,3-b]pyridin-3-yl)pyrimidin-2-yl)amino)phenyl)boric acid on the cells U251 and U87, after 24 h following the treatment with different concentrations of (3-((5-chloro-4-(1H-pyrrolo[2,3-b]pyridin-3-yl)pyrimidin-2-yl)amino)phenyl)boric acid, the cell cycle was analyzed and evaluated by flow cytometry."}, "glioma cells U251": {"tested_on": "glioma cells U251", "assay": "Flow cytometry cell cycle analysis (PI staining)", "settings": "cells U251, 24 h treatment; increased from 14.70%", "protocol": "as §1, §2"}, "[1]": {"tested_on": "p-Stat3, p-Akt, c-Myc, Cyclin B1, p-Erk1/2 in cells U87", "assay": "Western blot of cell protein expressions", "settings": "cells U87, after 24 h treatment", "protocol": "(§3) The cell supernatant was discarded and the cells were washed twice with PBS; based on cell confluence, a corresponding amount of Loading buffer was added, and stirred by a pipette tip while fully covered, and then collected to a centrifuge tube and centrifuged and then placed into a high-temperature metal bath of 100° C. for denaturation of 10 min, then cooled on ice and centrifuged and stored at the temperature of −20° C. for later use in the Western blot. The loading volume was adjusted by Western block pre-experiment to ensure the internal control proteins were uniform. • 2) BSA quantitative method\n(§4) The cells treated by the trypsin dissociation and collection assay were centrifuged for 4 min at the rotation speed of 1500 rpm/min. The supernatant was discarded and the cells were re-suspended and washed with the pre-cooled PBS and then transferred to al. 5 mL Eppendorf tube and then centrifuged again and the supernatant was all discarded. Cell lysis was carried out on ice, and based on a precipitation amount, a proper amount of RIPA lysis solution was added and blown uniform by the pipette and then stood on ice. The cells were whirled or dispersed once every other 10 min, and 30 min later, the cells were put into a pre-cooled 4° C. centrifugal machine and centrifuged for 30 min at the rotation speed of 12000 rpm/min. The supernatant was sucked to a new Eppendorf tube to obtain a protein sample solution.\n(§5) A standard protein BSA was selected for making a standard curve and the BSA was sequentially half-diluted by 10 factors. The protein sample was diluted with deionized water by 10 factors and 5 μL of diluted sample was sucked to a new Eppendorf tube and then 200 μL of BCA reagent was added to each tube (liquid A: liquid B=50:1) and placed in a 37° C. drying oven for incubation of 30 min After completion of the reaction, the liquid was whirled uniformly and 100 μL was sucked to a 96-well plate and measured for the OD value at the position of the wavelength 562 nm. Based on the standard curve, quantification was performed to sub-package the protein sample and then 5×Loading buffer was added for denaturation of 10 min at the temperature of 100° C., and cooled and centrifuged and then stored at the temperature of −20° C. for later use. • 3) Gel preparation: based on the size of target protein molecules, a desired gel was prepared and then solidified and then put into deionized water and stored in 4° C. refrigerator for later use. • 4) Electrophoresis: before electrophoresis, the protein sample was heated for 3 to 5 min at the temperature of 100° C. and then cooled and centrifuged and then loaded. A protein marker was added before the sample and then equal-volume or equal-quantity loading was performed in a sequence. After completion of loading, constant-voltage electrophoresis was performed with the voltage adjusted to 70V. Electrophoresis was stopped when the sample runs to a position 1 cm from the bottom glass plate, and transfer was performed. • 5) Transfer: 1×Transfer buffer 1000 mL containing 10% anhydrous ethanol was prepared, and the anhydrous ethanol activates PVDF membrane for 1 min and then the membrane was put into a Trans Buffer solution. Based on the target protein molecules, gel cutting was performed, and transfer was carried out based on black gel and white membrane. Under the condition of ice water bath, 330 mA constant-current transfer was performed for 70 min. • 6) Blocking: after transfer completion, the membrane was put into 5% skimmed mil powder solution and the shaker was blocked for 1 h at room temperature. • 7) Primary antibody incubation: a corresponding primary antibody was prepared for incubation of a target strip. The primary antibody was put into a 4° C. refrigerator and incubated by the shaker overnight. […]"}, "[2]": {"tested_on": "p-Stat3, p-Akt, c-Myc, Cyclin B1, p-Erk1/2 in cells U251", "assay": "Western blot of cell protein expressions", "settings": "cells U251, after 24 h treatment", "protocol": "as §3, §4, §5"}, "glioblastoma cells A172 [3]": {"tested_on": "glioblastoma cells A172", "assay": "Transwell cell migration assay", "settings": "cells A172, 24 h, different concentrations", "protocol": "(§6) The cells of the logarithmic phase were taken and dissociated by 0.25% trypsin-EDTA and blown into single cells. 200 μL of serum-free culture medium containing 5×10^4 cells was sucked and added into the Transwell upper chamber and 600 μL of culture medium containing 20% FBS was transferred to the Transwell lower chamber and drugs of corresponding concentrations were added to the upper and lower chambers. Culture was performed for 24 h in the cell incubator. In each well of the 24-well plate, 300 μL of 1% crystal violet methanol solution was added. After the culture medium was sucked and discarded, the Transwell chamber was placed into crystal violet and fixed free from light at room temperature and stained for 30 min. The chamber was picked by tweezers into the PBS buffer solution and washed slowly, and the cells and surplus crystal violet in the upper chamber were gently wiped with a cotton swab and then photographed under microscope for counting to calculate the number of the migrating cells of each group. […]"}, "glioblastoma cells U251 [4]": {"tested_on": "glioblastoma cells U251", "assay": "Transwell cell migration assay", "settings": "cells U251, 24 h, different concentrations", "protocol": "as §6"}, "glioblastoma cells A172 [5]": {"tested_on": "glioblastoma cells A172", "assay": "Cell colony-formation assay", "settings": "cells A172, 14 days, different concentrations", "protocol": "(§7) The cells of the logarithmic phase were taken and dissociated by 0.25% trypsin-EDTA and blown into single cells, and inoculated into the 6-well plate with a density of 2000 to 3000 pcs/well, and gently shaken to disperse the cells uniformly and then placed into 5% CO2, 37° C. incubator for incubation. After 24 h, the original culture medium was discarded and a fresh cell culture medium containing drugs of corresponding concentrations was then added, and the cells then were incubated in the incubator for about 14 days. During this period, the fresh culture medium containing the drugs of corresponding concentrations was replaced every two or three days. Frequent observation should be made to ensure that when a macroscopic colony appears in the culture plate, the culture was ended. The supernatant was discarded and cleaning was performed carefully twice with PBS. […] Finally, the number of the formed colonies was calculated.\n(§8) In order to determine the effect of (3-((5-chloro-4-(1H-pyrrolo[2,3-b]pyridin-3-yl)pyrimidin-2-yl)amino)phenyl)boric acid on the cell colony formation ability of the glioblastoma, we treated the cells U251 and A172 with different concentrations of (3-((5-chloro-4-(1H-pyrrolo[2,3-b]pyridin-3-yl)pyrimidin-2-yl)amino)phenyl)boric acid and 14 days later, determined the cell colony formation ability by colony determination."}, "glioblastoma cells U251 [6]": {"tested_on": "glioblastoma cells U251", "assay": "Cell colony-formation assay", "settings": "cells U251, 14 days, different concentrations", "protocol": "as §7, §8"}, "glioblastoma cells A172 [7]": {"tested_on": "glioblastoma cells A172", "assay": "SRB colorimetric analysis, cell survival/proliferation", "protocol": "(§9) After passage to the logarithmic phase, the cells were dissociated by 0.25 trypsin-EDTA and blown into single cells, and with a final cell concentration adjusted to […], inoculated into a 96-well plate with each well 100 μl (edge wells were filled with sterile PBS), 5% CO2, and 37° C. incubation. After 24 h (until a single layer of cells were spread to 30% to 50% of the well bottom), a cell culture solution containing drugs of corresponding concentrations was added and incubated for 24, 48 and 72 h in a 5% CO2, 37° C. incubator. Each drug concentration was provided with three parallel wells. The cells were medicate-cultured for 24, 48 and 72 h and then fixed by trichloroacetic acid (TCA). Each well of the cells was fixed by a pre-cooled 15% TCA liquid 100 μl, and then the 96-well plate was moved to 4° C. and stood for 4 h. The fixing liquid was discarded and the 96 wells were washed five times with sterile triple-distilled water and spin-dried and air-dried in 37° C. drying oven. Each well was added with 100 μl 0.4% SRB solution, and kept free from light and stood for 30 min at room temperature. The SRB not combined with proteins was cleaned with 1% glacial acetic acid and air-dried in 37° C. drying oven. The combined SRB was dissolved by 100 μl 10 mM non-buffer Tris alkaline solution (pH 10.5), and oscillated and mixed uniformly and then measured for the OD value on an enzyme-linked immuno detector. By blank control zero setting, the OD value of each well was measured at the position of a wavelength of 570 nm. The obtained growth inhibition rate of the tumor cells was defined as an in vitro inhibition rate of the drug on the tumor cells. The inhibition rate is […].\n(§10) Firstly, we evaluated the growth inhibition effect of (3-((5-chloro-4-(1H-pyrrolo[2,3-b]pyridin-3-yl)pyrimidin-2-yl)amino)phenyl)boric acid on the MG cells U251A172 and U87 of three different glioblastoma cell series. With different concentrations of (3-((5-chloro-4-(1H-pyrrolo[2,3-b]pyridin-3-yl)pyrimidin-2-yl)amino)phenyl)boric acid, the cells U251, A172 and U87 were treated for 24 h, 48 h and 72 h and then based on the SRB detection method, the survival rate of the cells treated by (3-((5-chloro-4-(1H-pyrrolo[2,3-b]pyridin-3-yl)pyrimidin-2-yl)amino)phenyl)boric acid was detected. […] The cytotoxic effect of the U87 was more obvious than those of U251 and A172."}, "glioblastoma cells U87": {"tested_on": "glioblastoma cells U87", "assay": "SRB colorimetric analysis, cell survival/proliferation", "protocol": "as §9, §10"}, "glioblastoma cells U251 [8]": {"tested_on": "glioblastoma cells U251", "assay": "SRB colorimetric analysis, cell survival/proliferation", "protocol": "as §9, §10"}},
  "note": "pIC50: −log10 of the molar value.",
  "data": [
    {"smiles": "OB(O)c1cccc(Nc2ncc(Cl)c(-c3c[nH]c4ncccc34)n2)c1", "note": "[(3-((5-chloro-4-(1H-pyrrolo[2,3-b]pyridin-3-yl)pyrimidin-2-yl)amino)phenyl)boric acid]", "values": [
      {"measurement": "distribution of the G2/M phase", "setting": "glioma cells U87", "result": 42.62, "unit": "%"},
      {"measurement": "distribution of the G2/M phase", "setting": "glioma cells U251", "result": 40.61, "unit": "%"},
      {"measurement": "Cyclin B1 protein expression", "setting": "[1]", "result": "decreased"},
      {"measurement": "c-Myc protein expression", "setting": "[1]", "result": "decreased"},
      {"measurement": "p-Akt protein expression", "setting": "[1]", "result": "decreased"},
      {"measurement": "p-Erk1/2 protein expression", "setting": "[1]", "result": "increased"},
      {"measurement": "p-Stat3 protein expression", "setting": "[1]", "result": "decreased"},
      {"measurement": "Cyclin B1 protein expression", "setting": "[2]", "result": "decreased"},
      {"measurement": "c-Myc protein expression", "setting": "[2]", "result": "decreased"},
      {"measurement": "p-Akt protein expression", "setting": "[2]", "result": "decreased"},
      {"measurement": "p-Erk1/2 protein expression", "setting": "[2]", "result": "increased"},
      {"measurement": "p-Stat3 protein expression", "setting": "[2]", "result": "decreased"},
      {"measurement": "cell migration (number of migrating cells)", "setting": "glioblastoma cells A172 [3]", "result": "significant cell migration inhibition effect"},
      {"measurement": "cell migration (number of migrating cells)", "setting": "glioblastoma cells U251 [4]", "result": "significant cell migration inhibition effect"},
      {"measurement": "number of cell colonies", "setting": "glioblastoma cells A172 [5]", "result": "reduced the number of the cell colonies in a dose-dependent way"},
      {"measurement": "number of cell colonies", "setting": "glioblastoma cells U251 [6]", "result": "reduced the number of the cell colonies in a dose-dependent way"},
      {"measurement": "pIC50", "setting": "glioblastoma cells A172 [7]; Homo sapiens, A 172, cells A172 treated for 72 h", "result": 6.32},
      {"measurement": "cytotoxic effect (survival rate, SRB)", "setting": "glioblastoma cells A172 [7]; cells A172, 24 h, 48 h and 72 h, different concentrations", "result": "significant cytotoxic effect"},
      {"measurement": "cytotoxic effect (survival rate, SRB)", "setting": "glioblastoma cells U87; cells U87, 24 h, 48 h and 72 h, different concentrations", "result": "significant cytotoxic effect"},
      {"measurement": "pIC50", "setting": "glioblastoma cells U87; cells U87 treated for 72 h", "result": 6.77},
      {"measurement": "pIC50", "setting": "glioblastoma cells U251 [8]; Homo sapiens, U-251, cells U251 treated for 72 h", "result": 6.42},
      {"measurement": "cytotoxic effect (survival rate, SRB)", "setting": "glioblastoma cells U251 [8]; cells U251, 24 h, 48 h and 72 h, different concentrations", "result": "significant cytotoxic effect"}
    ]}
  ]
}
